Experimental data taken from patent publication US20250114424A1, “PLANT EXTRACT-BASED COMPOSITION AND ITS USE FOR TREATING GLUCOSE METABOLISM DISORDERS” (ESSERRE PHARMA SRL, priority 2021, published 2025).

Experiments:
incidence of diabetes = conditions: pharmacological treatment vs lifestyle changes (58%); cited from earlier work
[1] = tested on: adult individuals with dysglycaemia (baseline blood glucose between 100 and 125 mg/dL); experiment: Clinical evaluation of the efficacy of the composition: double-blind, placebo-controlled pilot clinical study, 12 weeks; type: in vivo, humans
Procedure: A single-centre, […], double-blind, placebo-controlled, pilot clinical study was conducted to evaluate the efficacy of the composition object of the present invention on humans in reducing insulin resistance-related risk factors. The study was carried out in accordance with the guidelines of the Helsinki Declaration and approved by the Ethics Committee of the Hospital. 100 adult individuals of both sexes were enrolled (47 women and 53 men, aged 20 to 75 years) with dysglycaemia (baseline blood glucose between 100 and 125 mg/dL on at least two consecutive occasions), in primary prevention for cardiovascular disease.
Exclusion criteria: dysglycaemia secondary to pathological or iatrogenic causes, systemic diseases associated with dysglycaemia, uncompensated dysthyroidism, treatment with drugs potentially interacting with glucose metabolism (for example corticosteroids, atypical antipsychotics).
The subjects enrolled were randomized into 5 groups, each consisting of 20 individuals: • Group A: 1 tablet of active (COMP) twice daily • Group B: 1 placebo tablet twice daily • Group C: 1 tablet of lemon extract 250 mg twice daily • Group D: 1 tablet of blood orange extract 100 mg twice daily • Group E: 1 tablet of chromium 100 mcg twice daily
All the enrolled subjects were subjected, 14 days prior to enrolment (T-14), to a pre-enrolment visit with blood tests to assess meeting the inclusion criteria. The individuals who met the TO inclusion criteria underwent a randomization visit at which the respective treatment was assigned and blood tests were performed in relation to the reference parameters.
The study lasted 12 weeks.
At the end of treatment (T12), the subjects were subjected to an end-of-study visit and blood tests.
The parameters investigated in the study are: Body mass index, systolic and diastolic blood pressure, glycated haemoglobin (HbAlc) fasting plasma glucose (FPG), fasting insulinemia (FPI), HOMA-index, triglycerides, gammaGT, creatinine phosphokinase (CPK).
The treatment called “active” or “COMPOSITION (COMP)” consists of a 570 mg tablet consisting of 250 mg lemon extract, 100 mg blood orange extract, 100 mcg chromium (as chromium picolinate), in addition to excipients such as calcium phosphate, magnesium stearate, silicon dioxide, hydroxypropyl cellulose, mono- and di-glycerides of fatty acids, microcrystalline cellulose, yellow iron oxide as a dye, coating agents. The treatment called “placebo” consists of a tablet equal in shape, weight, colour size and flavour to the active tablet but containing “inert” material for the desired effect and consists of: microcrystalline cellulose, magnesium stearate, silicon dioxide, calcium phosphate, chlorophylline dye, yellow iron oxide dye, coating agents.
The treatments related to groups C, D and E consist of one tablet equal in appearance to the tablets of groups A and B but consisting of the single active ingredient, as described above in addition to excipients.
The treatment tablets were packaged in anonymous white bottles, showing only the batch number consisting of an alphanumeric code and the expiration date. Neither the investigator nor the study subjects knew the contents of the bottles. The bottles of each treatment were placed in cardboard boxes containing a letter in a sealed envelope with reference to the batch number and content, to be opened only in case of need, as in cases of serious adverse events. After randomization, each study participant was given the bottle with 60 tablets for the specific treatment of the group to which they belonged.
All the subjects were instructed to take one tablet in the morning and one in the evening for 12 weeks.

[2] = tested on: rats with streptozocin-induced diabetes; conditions: 40 mg/kg for 30 days; cited from earlier work
[3] = tested on: semi-professional cyclists; conditions: single dose of 500 mg; cited from earlier work
[4] = tested on: subjects with type II diabetes mellitus; conditions: 500 mg daily for 6 weeks; cited from earlier work
[5] = cited from earlier work
[6] = in vivo; cited from earlier work
[7] = 12-Week follow-up, 1 tablet twice daily

CN(C)C(=N)N=C(N)N [metformin]
reduction in the incidence of diabetes (incidence of diabetes): 31%

chromium picolinate
BMI [1, 7]: 26.2 ± 1.0 kg/m2 | CPK [1, 7]: 133 ± 22 U/L | DBP [1, 7]: 84 ± 4 mmHg | FPG [1, 7]: 112 ± 4 mg/dL | FPI [1, 7]: 20.9 ± 1.1 μU/ml | Gamma-GT [1, 7]: 27 ± 6 U/L | HbA1c [1, 7]: 6.4 ± 0.1% | SBP [1, 7]: 130 ± 7 mmHg | TG [1, 7]: 152 ± 10 mg/dL | HOMA-IR ([1]; 12-Week follow-up, 1 tablet twice daily, HOMA-IR=(FPG*FPI)/405): 5.7 ± 1.8 | BMI ([1]; Baseline): 26.2 ± 1.0 kg/m2 | CPK ([1]; Baseline): 134 ± 25 U/L | DBP ([1]; Baseline): 85 ± 6 mmHg | FPG ([1]; Baseline): 117 ± 5 mg/dL | FPI ([1]; Baseline): 22.9 ± 1.0 μU/ml | Gamma-GT ([1]; Baseline): 24 ± 9 U/L | HbA1c ([1]; Baseline): 6.4 ± 0.3% | SBP ([1]; Baseline): 131 ± 5 mmHg | TG ([1]; Baseline): 159 ± 12 mg/dL | HOMA-IR ([1]; Baseline, HOMA-IR=(FPG*FPI)/405): 6.6 ± 1.2 | Observed efficacy rate (%), Reduction of FPG (−) ([1]; Chromium alone 100 mcg, Group E of example 7, 12 weeks): −4.2% | reductions in HbAlc, FPG, FPI, HOMA-index, triglycerides (statistical significance) ([1]; after 12 weeks of treatment, with respect to baseline and placebo): did not show statistically significant reductions | reduction of fasting insulinemia (FPI) ([1]; after 12 weeks vs baseline): 4% | reduction of fasting plasma glucose (FPG) ([1]; after 12 weeks vs baseline): 4.2% | reduction of glycated haemoglobin (HbAlc) ([1]; after 12 weeks vs baseline): did not achieve reductions | reduction of HOMA index ([1]; after 12 weeks vs baseline, HOMA-IR=(FPG*FPI)/405): 13%

COc1ccc([C@@H]2CC(=O)c3c(O)cc(O[C@@H]4O[C@H](CO[C@@H]5O[C@@H](C)[C@H](O)[C@@H](O)[C@H]5O)[C@@H](O)[C@H](O)[C@H]4O)cc3O2)cc1O [hesperidin, 3′,5,7-trihydroxy-4′-methoxy-flavanone-7-rhamnoglucoside]
fasting glycaemia, insulinemia and glycated haemoglobin [2]: reduced fasting glycaemia, insulinemia and glycated haemoglobin | physical performance and oxidative stress [3]: improved physical performance and modulated oxidative stress | inflammation and blood pressure [4]: reduced inflammation and blood pressure | water solubility [5]: poor water solubility | bioavailability [6]: low bioavailability
